In patent publication US20080076772A1, “Anti-Inflammatory Agents” (Pharma Mar S.A. Sociedad Unipersonal, priority 2004, published 2008):

Experiments:
[1] = tested on: macrophage differentiation; assay: In vivo treatment of tumour patients, in vitro differentiation of their monocytes to macrophages; design: species or system human; % inhibition of macrophage differentiation referred to cells before infusion: concentration or dose not given beside the values; conditions: for Absolute numbers of marker positive macrophages/10,000 cells, Exposure to ecteinascidin 743: end of 3-h infusion, 5 days M-CSF
Procedure: Expression of cell membrane markers was performed by immunofluoresce and analyzed by Flow Cytometry. Cells were incubated with anti-CD14, anti-CD16, anti-CD68, anti-CD206 (mannose receptor) and then with FITC-goat anti-mouse Ig as described. At least 10,000 cells were analyzed.
Patients with sarcoma or ovarian cancer undergoing Phase II trial with ecteinascidin 743, were admitted to the European Oncology institute, Milano, Italy. Patients received ecteinascidin 743 ([…]) in a 3-h infusion. Blood samples (40 ml) were collected immediately before the treatment and at the end of the infusion (+3 h). Blood samples were immediately processed and Percoll purified monocytes (usually 10^6 cells) were cultured with M-CSF (20 ng/ml) for 5 days. Differentiated cells were harvested, counted and analyzed for phenotype expression, as described above. Results are presented as absolute numbers of marker-positive cells/10,000 cells.
To validate the above in vitro findings we tested whether the in vivo administration of ecteinascidin 743 in tumour patients could have measurable effects on monocyte viability and capacity to macrophage differentiation in vitro. A phase II trial with ecteinascidin 743 is currently underway in advanced ovarian adenocarcinoma patients who had failed two different cycles of conventional cis-platin and taxol-based chemotherapy. Tumour patients selected for this study were treated with 1300 ug/ml/m2 of ecteinascidin 743. Blood samples from patients were drawn just before drug administration and at the end of a 3-hour infusion. Purified monocytes were immediately isolated and cultured with M-CSF (20 ng/ml) for 5 days to induce macrophage differentiation and then analalyzed for phenotype expression. […] The data shown are the absolute numbers of marker positive cells for a total of 10,000 input cells.

monocytes [2] = assay: Apoptosis of monocytes (Annexin V / PI staining); type: cell-based, human; conditions: monocytes exposed to drug
Procedure: Cells exposed to treatments were fixed with ethanol 70%, washed in PBS and stained with propidium iodide (PI) solution containing 10 ug/ml PI in PBS and 25 μl RNAse 10,000 units, overnight in the dark. PI incorporation was evaluated on at least 20,000 cells/sample using a FACS Calibur instrument (Becton Dickinson, Sunnyvale, Calif., USA), with a bandpass filter at 620 nm. Apoptosis was detected by staining with AnnexinV and PI. FACS analysis was performed using a bandpass filter 530 and 620 nm for green (AnnexinV) and red (PI) fluorescence respectively, in combination with a […] dichroic mirror.

[3] = tested on: Tumour-Associated Macrophages (TAM); assay: Cell viability of Tumour-Associated Macrophages from ovarian cancer ascites; type: cell-based; conditions: Homo sapiens, Macrophage; 10 nM, 48 h, three patients
From the text: (§1) Tumour-associated macrophages (TAM) and tumour cells were isolated from the ascitic fluid of patients with diagnosed ovarian adenocarcinoma, admitted to the Clinic of Obstetrics and Gynecology of the University of Milan-Bicocca, S Gerardo Hospital. Cells contained in the ascitic fluid were centrifuged and isolated by differential density gradients of Ficoll and Percoll, and plastic adherence as previously described (see Allavena, P., Peccatori, F., Maggioni, D., Erroi, A., Sironi, M., Colombo, N., Lissoni, A., Galazka, A., Meiers, W., Mangioni, C., et al. Intraperitoneal recombinant gamma-interferon in patients with recurrent ascitic ovarian carcinoma: modulation of cytotoxicity and cytokine production in tumour-associated effectors and of major histocompatibility antigen expression on tumour cells. Cancer Res, 50: 7318-7323, 1990). Purity of TAM and tumour cell preparations was usually>65±10% as defined by morphology and phenotype analysis. Cells were treated with ecteinascidin 743 at the indicated concentrations and cultured for 1-5 days, as specified in figure legends. At the end of the incubation period cells were collected, washed and used for DNA analysis or functional assays.
Apoptosis was detected by staining with AnnexinV and PI.
We also tested Tumour-Associated Macrophages (TAM) isolated from the ascites of non-treated ovarian adenocarcinoma patients. […]

CCL2 = assay: Constitutive CCL2 production by freshly isolated ovarian tumour cells (ELISA); type: cell-based, human; conditions: 16 h
From the text: as §1, with “At the end of the incubation period cells were collected, washed and used for DNA analysis or functional assays.” left out
Monocytes, macrophages and TAM were stimulated with 100 ng/ml LPS to induce maximal cytokine production. Determination of cytokines CCL2, TNF and IL-6 was measured by specific ELISA following the manufacturer's instructions. […]

monocytes [4] = assay: Monocytopenia in cancer patients after in vivo treatment (blood formula); design: species or system human; conditions: of 9 patients; decrease = 25% inhibition in at least one cycle; % of leukocytes and monocytes/ul of blood
From the text: We also investigated whether the in vivo treatment with ecteinascidin 743 caused a measurable monocytopenia in cancer patients. Monocyte values were obtained from blood formula during routine clinical analysis.

COc1cc2c(cc1O)CCN[C@]21CS[C@@H]2c3c(OC(C)=O)c(C)c4c(c3[C@H](COC1=O)N1[C@@H]2[C@H]2c3c(cc(C)c(OC)c3O)C[C@@H]([C@@H]1O)N2C)OCO4 [ecteinascidin 743]
subjects whose monocytes showed decreased macrophage differentiation after treatment ([1]; of 12 evaluable patients, blood at end of 3-hour infusion): 6
% inhibition of macrophage differentiation referred to cells before infusion ([1]; patient UPN 1, CD16): 60%
Absolute numbers of marker positive macrophages/10,000 cells, Exposure to ecteinascidin 743 ([1]; patient UPN 1, CD16): 1248 /10,000 cells
% inhibition of macrophage differentiation referred to cells before infusion ([1]; patient UPN 1, CD68): 45%
Absolute numbers of marker positive macrophages/10,000 cells, Exposure to ecteinascidin 743 ([1]; patient UPN 1, CD68): 1473 /10,000 cells
% inhibition of macrophage differentiation referred to cells before infusion ([1]; patient UPN 1, CD206): 88%
Absolute numbers of marker positive macrophages/10,000 cells, Exposure to ecteinascidin 743 ([1]; patient UPN 1, CD206): 550 /10,000 cells
% inhibition of macrophage differentiation referred to cells before infusion ([1]; patient UPN 2, CD16): 60%
Absolute numbers of marker positive macrophages/10,000 cells, Exposure to ecteinascidin 743 ([1]; patient UPN 2, CD16): 1105 /10,000 cells
% inhibition of macrophage differentiation referred to cells before infusion ([1]; patient UPN 2, CD68): 70%
Absolute numbers of marker positive macrophages/10,000 cells, Exposure to ecteinascidin 743 ([1]; patient UPN 2, CD68): 1060 /10,000 cells
% inhibition of macrophage differentiation referred to cells before infusion ([1]; patient UPN 2, CD206): 79%
Absolute numbers of marker positive macrophages/10,000 cells, Exposure to ecteinascidin 743 ([1]; patient UPN 2, CD206): 595 /10,000 cells
% inhibition of macrophage differentiation referred to cells before infusion ([1]; patient UPN 3, CD68): 80%
Absolute numbers of marker positive macrophages/10,000 cells, Exposure to ecteinascidin 743 ([1]; patient UPN 3, CD68): 632 /10,000 cells
% inhibition of macrophage differentiation referred to cells before infusion ([1]; patient UPN 3, CD206): 87%
Absolute numbers of marker positive macrophages/10,000 cells, Exposure to ecteinascidin 743 ([1]; patient UPN 3, CD206): 474 /10,000 cells
% inhibition of macrophage differentiation referred to cells before infusion ([1]; patient UPN 4, CD16): 41%
Absolute numbers of marker positive macrophages/10,000 cells, Exposure to ecteinascidin 743 ([1]; patient UPN 4, CD16): 3050 /10,000 cells
% inhibition of macrophage differentiation referred to cells before infusion ([1]; patient UPN 4, CD68): 55%
Absolute numbers of marker positive macrophages/10,000 cells, Exposure to ecteinascidin 743 ([1]; patient UPN 4, CD68): 2460 /10,000 cells
% inhibition of macrophage differentiation referred to cells before infusion ([1]; patient UPN 5, CD16): 63%
Absolute numbers of marker positive macrophages/10,000 cells, Exposure to ecteinascidin 743 ([1]; patient UPN 5, CD16): 594 /10,000 cells
% inhibition of macrophage differentiation referred to cells before infusion ([1]; patient UPN 5, CD68): 50%
Absolute numbers of marker positive macrophages/10,000 cells, Exposure to ecteinascidin 743 ([1]; patient UPN 5, CD68): 815 /10,000 cells
% inhibition of macrophage differentiation referred to cells before infusion ([1]; patient UPN 6, CD16): 83%
Absolute numbers of marker positive macrophages/10,000 cells, Exposure to ecteinascidin 743 ([1]; patient UPN 6, CD16): 480 /10,000 cells
% inhibition of macrophage differentiation referred to cells before infusion ([1]; patient UPN 6, CD68): 79%
Absolute numbers of marker positive macrophages/10,000 cells, Exposure to ecteinascidin 743 ([1]; patient UPN 6, CD68): 505 /10,000 cells
Annexin V staining of dying monocytes (apoptosis) (monocytes [2]): stained positive for Annexin V
mortality at 0.01 µM [3]: 40 to 70%
constitutive production of CCL2 by freshly isolated tumour cells (CCL2): reduced
patients showing a decrease in the number of monocytes (monocytes [4]): 7
